Measured values reported in US8709821B2, “Luminescent substrate for liciferase” (The University of Electro-Communications, priority 2008, dated 2014).
Values joined by “and” are separate entries in the source; they are usually repeats but may differ in a detail not shown here. Equal values may be shown once.

Experiments:
[1] = molecular target: T1, luciferase (derived from Photinus pyralis of North America product firefly) (Photinus pyralis, UniProt P08659); experiment: Measurement of the bioluminescence spectra (luminescent spectrum of substrate with luciferase, ATP-Mg); type: biochemical; details: for luminescent wavelength (maximum wavelength of the bioluminescence spectrum): potassium phosphate buffer pH 8.0, substrate solution 2.5 mM, exposure 60 seconds; for color of the luminescence: FIG. 1
T1 construct: purchased Sigma-Aldrich Corporation or Promega KK
Protocol: Measurement of Luminescent Spectrum
They were measured using feeble luminescence fluorescent spectra device AB-1850 manufactured by ATTO Co., Ltd. All the measured spectra were the spectra which calibrated with the characteristic of the detector.
For the luciferase (derived from Photinus pyralis of North America product firefly), was used the recombination type manufactured by Sigma-Aldrich Corporation or Promega KK.
For ATP-Mg the product manufactured by Sigma-Aldrich Corporation was used.
The Substrate was weighted with an electronic balance, and it was diluted. The phosphate-buffered saline (50 mM, pH 6.0) was used in the case of the chemiluminescence measurement, and t-butanol was used in the case of the bioluminescence as a solvent.
The luciferase was diluted with Tris-HCl buffer solution (50 mM, pH 8.0 s) to become 1 μg/μl and divided. This was used as stocked solution, so that was diluted to be used each time. Note that, the stock solutions were stored in a freezer of −80 degrees Celsius.
ATP-Mg was diluted in the ultra pure water.
The solution of a potassium phosphate buffer (0.5 M, pH 8.0, 20 μl), the solution of substrate (2.5 mM, 20 μl) and enzyme solution (20 μl), then ATP-Mg solution (ten mM, 40 μl) were mixed in a 200 μL of a polystyrene tube, and measured the luminescent spectrum. The enzyme solution was used at the concentration of 17 μM, provided that enzymes at 1.7 μM and at 170 μM were used in the firefly luciferin (1) and the phenol type luciferin respectively. The exposure time for the measurement of the luminescent spectrum was 60 seconds, provided that the firefly luciferin was five seconds.

[2] = luciferin derivative, patent document 1; cited from earlier work
[3] = Photinus pyralis luciferase, ATP-Mg

T1 sequence (P08659 whole entry): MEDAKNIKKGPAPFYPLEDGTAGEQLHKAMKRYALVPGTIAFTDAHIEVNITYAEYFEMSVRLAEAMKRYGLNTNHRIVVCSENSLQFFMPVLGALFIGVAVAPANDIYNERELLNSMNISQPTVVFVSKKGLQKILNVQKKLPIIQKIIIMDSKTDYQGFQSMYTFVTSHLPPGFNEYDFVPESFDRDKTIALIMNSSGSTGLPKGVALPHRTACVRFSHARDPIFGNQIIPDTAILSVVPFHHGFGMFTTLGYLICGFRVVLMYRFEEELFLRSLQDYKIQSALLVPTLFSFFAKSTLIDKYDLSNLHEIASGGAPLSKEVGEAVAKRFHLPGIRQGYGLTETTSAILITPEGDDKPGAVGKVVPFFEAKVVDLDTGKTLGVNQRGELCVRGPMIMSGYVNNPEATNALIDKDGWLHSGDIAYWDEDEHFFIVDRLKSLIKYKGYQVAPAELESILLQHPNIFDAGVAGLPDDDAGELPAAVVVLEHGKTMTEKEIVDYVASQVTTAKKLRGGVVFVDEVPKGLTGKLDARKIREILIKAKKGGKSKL

Compound | melting point | luminescent wavelength (maximum wavelength of the bioluminescence spectrum) [1, 3] | color of the luminescence [1] | further results
O=C(O)[C@H]1CSC(/C=C/c2cccc(O)c2)=N1 [analogs 9] | 163 to 165 °C (dec.) |  |  | luminescent activity as substrate ([1]; Photinus pyralis luciferase, ATP-Mg, pH 8.0): did not luminescent
O=C(O)[C@H]1CSC(c2ccc(O)cc2)=N1 [analogs 7] | 200 to 204 °C (dec.) | 415 nm |  | 
CN(C)c1ccc(C2=N[C@@H](C(=O)O)CS2)cc1 [analogs IV, dimethyl aniline type luciferin] |  |  | red | luminescent wavelength (maximum wavelength of the bioluminescence spectrum) ([1]; Photinus pyralis luciferase, ATP-Mg, listed as IV): 680 nm and 445 nm; luminescent wavelength (maximum wavelength of the bioluminescence spectrum) ([1]; Photinus pyralis luciferase, ATP-Mg, listed as dimethyl aniline type luciferin): about 445 nm
CN(C)c1ccc(/C=C/C=C/C2=N[C@@H](C(=O)O)CS2)cc1 [analogs II, dimethyl aniline-diene type luciferin] |  | 445 nm and > 680 nm | blue | 
CN(C)c1ccc(/C=C/C2=N[C@@H](C(=O)O)CS2)cc1 [analogs III, dimethyl aniline-monoene type luciferin] |  | 565 nm | yellow green | 
Nc1ccc2nc(C3=N[C@@H](C(=O)O)CS3)sc2c1 [Aminoluciferin] |  |  |  | luminescence wavelength [2]: About 610 nm
O=C(O)[C@H]1CSC(/C=C/c2ccc(O)cc2)=N1 [analogs 8] | 138 to 140 °C (dec.) | 520 nm |  | 
